In one test the target is T1, PYL5 (Arabidopsis thaliana, UniProt Q9FLB1).
T1 construct: 6X-His; made in house; host or cells: E. coli BL21[DE3]pLysS
T1 sequence (Q9FLB1 1-203): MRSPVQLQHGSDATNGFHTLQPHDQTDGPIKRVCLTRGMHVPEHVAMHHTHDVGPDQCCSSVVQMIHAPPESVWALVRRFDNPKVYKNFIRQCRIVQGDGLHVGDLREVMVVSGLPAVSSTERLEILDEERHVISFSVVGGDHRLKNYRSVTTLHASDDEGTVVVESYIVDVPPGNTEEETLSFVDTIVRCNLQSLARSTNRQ
T1 sequence (Q9CAJ0 23-511 partner): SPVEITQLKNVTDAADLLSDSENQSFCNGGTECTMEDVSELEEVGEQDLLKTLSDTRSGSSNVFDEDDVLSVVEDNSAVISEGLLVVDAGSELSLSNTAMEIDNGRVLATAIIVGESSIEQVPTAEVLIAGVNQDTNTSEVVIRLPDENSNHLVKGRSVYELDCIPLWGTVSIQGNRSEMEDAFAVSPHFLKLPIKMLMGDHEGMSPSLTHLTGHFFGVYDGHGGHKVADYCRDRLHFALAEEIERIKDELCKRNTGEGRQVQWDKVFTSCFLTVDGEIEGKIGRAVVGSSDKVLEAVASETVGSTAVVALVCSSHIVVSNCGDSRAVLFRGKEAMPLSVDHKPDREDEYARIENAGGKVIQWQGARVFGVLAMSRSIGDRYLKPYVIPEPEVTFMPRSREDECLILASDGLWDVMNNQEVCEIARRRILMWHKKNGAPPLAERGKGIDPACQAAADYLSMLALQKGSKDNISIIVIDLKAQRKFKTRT
Put plainly: receptor-mediated PP2C (HAB1) inhibition in vitro assay. The class given is biochemical. The settings on record: for remaining activity at 50 µM: 50 uM of the test compound; for IC50: Table XII-B, calculated from dose curves, read-out: PP2C Activity (IC50 in uM) PYL5. The gist of the method: (§1)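 Compounds, tested at 25 μM or 50 uM with ABA at 10 uM, were incubated with recombinant receptor and 50 nM GST-HAB1 (2:1 ratio) in MnCl2-containing Tris-OAc buffer, pH 7.9. Phosphatase activity was followed by 4-methylumbelliferyl-phosphate fluorescence.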

In the next test the target is T2, PYL4 (Arabidopsis thaliana, UniProt O80920).
T2 construct: 6X-His; made in house; host or cells: E. coli BL21[DE3]pLysS
T2 sequence (O80920 1-207): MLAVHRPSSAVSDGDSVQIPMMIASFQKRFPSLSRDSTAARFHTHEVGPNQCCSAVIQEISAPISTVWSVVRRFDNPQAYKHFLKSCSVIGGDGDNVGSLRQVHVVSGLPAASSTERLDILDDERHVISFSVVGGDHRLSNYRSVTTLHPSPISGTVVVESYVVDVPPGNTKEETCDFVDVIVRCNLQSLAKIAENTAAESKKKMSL
T2 sequence (Q9CAJ0 23-511 partner): T1 sequence (Q9CAJ0 23-511 partner)
The description is as above. In kind it is biochemical. The settings on record: for remaining activity at 50 µM: 50 uM of the test compound; for IC50: Table XII-B, calculated from dose curves, read-out: PP2C Activity (IC50 in uM) PYL4. The gist of the method: as §1

The next test concerns the target T3, PYL8 (Arabidopsis thaliana, UniProt Q9FGM1).
T3 construct: 6X-His; made in house; host or cells: E. coli BL21[DE3]pLysS
T3 sequence (Q9FGM1 1-188): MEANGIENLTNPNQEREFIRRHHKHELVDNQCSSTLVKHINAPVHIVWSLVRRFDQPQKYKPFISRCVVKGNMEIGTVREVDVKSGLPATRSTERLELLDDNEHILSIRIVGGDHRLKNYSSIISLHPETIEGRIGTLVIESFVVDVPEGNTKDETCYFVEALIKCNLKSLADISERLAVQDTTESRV
T3 sequence (Q9CAJ0 23-511 partner): T1 sequence (Q9CAJ0 23-511 partner)
Described as above. The class given is biochemical. Conditions: for remaining activity at 50 µM: 50 uM of the test compound; for IC50: Table XII-B, calculated from dose curves, read-out: PP2C Activity (IC50 in uM) PYL8. In short, it runs like this: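 Fluorogenic readout: 4-methylumbelliferyl-phosphate hydrolysis by 50 nM GST-HAB1 plus 2:1 His-receptor; Tris-OAc pH 7.9, NaCl, 1 mM MnCl2, β-ME. Compounds at 25 μM or 50 uM single dose; IC50 from dose curves for selected compounds.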

Test [1] relates to Arabidopsis seed germination and hypocotyl growth. Nature of the test: Arabidopsis seed germination and hypocotyl growth. In kind it is in vivo. Conditions: Arabidopsis thaliana, Germination Effects III, tested at 1, 5, 10, 25 and 50 uM, — = none. In short, it runs like this: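 Wild-type seeds germinated on ½× Murashige and Skoog medium with compound at 10 and 50 uM, or in a later series at 1, 5, 10, 25 and 50 uM. Reported value is the lowest tested concentration that inhibited germination or hypocotyl growth in wells where seeds germinated.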

The mark [2] stands for this setting: lowest concentration inhibiting hypocotyl growth, read-out: Growth Inhibition.
Where [3] appears, read: lowest inhibiting concentration, read-out: Germination Inhibition.

Like-named read-outs stand apart in the source and are kept apart here.

What is called remaining activity is the signal under treatment as a percentage of the control signal. As usually defined, the IC50 is the point on the concentration scale where inhibition reaches its midpoint.

As for `N#Cc1ccc(CS(=O)(=O)NC(=O)C2(c3cccs3)CCCCC2)cc1` [Compound 75, N-[(4-Cyanophenyl)methanesulfonyl]-1-(thiophen-2-yl)cyclohexane-1-carboxamide], the remaining activity at 50 µM at PYL5 turned out to be 81.8%; on PYL4, 98%; on PYL8 it was 14.9%. In addition, the IC50 on PYL5 was > 50 µM; at PYL4, > 50 µM; at PYL8 it was 0.134 µM. The minimal effective concentration in test [1] (setting [2]) and in test [1] (setting [3]) was 5 µM throughout.

`N#Cc1ccc(CS(=O)(=O)NC(=O)C2(c3ccsc3)CCCCC2)cc1` [Compound 78, N-[(4-Cyanophenyl)methanesulfonyl]-1-(thiophen-3-yl)cyclohexane-1-carboxamide]: the remaining activity at 50 µM amounted to 68.5% on PYL5, 102% at PYL4 and 14.3% at PYL8. The IC50 on PYL5 is > 50 µM; at PYL4 it was > 50 µM; on PYL8, 0.073 µM. The minimal effective concentration in test [1] (setting [2]) and in test [1] (setting [3]) was 2.5 µM in each case.

In the case of `N#Cc1ccc(CS(=O)(=O)NC(=O)C2(c3ccsc3)CCCCC2)cc1Br` [Compound 106, N-[(4-Cyano-3-bromophenyl)methanesulfonyl]-1-(thiophen-3-yl)cyclohexane-1-carboxamide], the remaining activity at 50 µM at PYL5 worked out at 11.9%; on PYL4, 89.2%; on PYL8, 13.6%. In addition, the results for the 50% inhibitory concentration (IC50) on PYL5, at PYL4 and at PYL8 were 7.26 µM, > 50 µM and 0.037 µM, respectively. Besides, the minimal effective concentration in test [1] (setting [2]) and in test [1] (setting [3]) was 1 µM throughout.

The values are drawn from patent US10757937B2, “Sulfonamides that activate ABA receptors” (The Regents of the University of California, priority 2014, dated 2020).
